Data reported in patent US7943653B2 (priority 2008, dated 2011).
pIC50: −log10 of the molar value. Where two headings read alike, the source gives them in different places.

Assays:
human CB1 receptor = target: T1, human CB1 receptor (Homo sapiens, UniProt P21554); experiment: Binding assay, cannabinoid CB1 receptor, [3H]-CP-55,940 displacement
T1 construct: expressed in transfected cells; host or cells: SK-N-MC cells, stably transfected with pcDNA3 CB-1 (human); semi-purified membrane pellet
Description: (§1) The human CB1 and CB2 receptors were stably expressed in SK-N-MC cells transfected with pcDNA3 CB-1 (human) or pcDNA3 CB-2 (human). The cells were grown in T-180 cell culture flasks under standard cell culture conditions at 37° C. in a 5% CO2 atmosphere. The cells were harvested by trysinization and homogenized in a homogenization buffer (10 mM Tris, 0.2 mM MgCl2, 5 mM KCl, with protease inhibitors aprotinin, leupeptin, pepstatin A and bacitracin) and centrifuged (2000 g). The supernatant was then centrifuged in 2M sucrose (31,300 g) to produce a semi-purified membrane pellet. The pellet was resuspended in homogenization and stored at −80° C.
(§2) On the day of the assay, the pellet was thawed on ice and diluted in assay buffer (50 mM Tris-HCl, 5 mM MgCl2, 2.5 mM EDTA, 0.5 mg/mL fatty acid free bovine serum albumin, pH 7.5). The diluted membrane pellet was added with buffer, either a test compound or vehicle standard and the radioligand [H]^3+-CP-55,940 (0.2 nM) to the wells of a 96-well polypropylene plate. Non-specific binding was measured in wells containing WIN 55,212 (10 uM). The plate was covered and incubated for 90 minutes at 30° C. The contents were then aspirated onto a Packard Unifilter GF/C filter bottom plate prewet with 0.5% polyethyleneimine. The wells of the polypropylene plate were rinsed and aspirated seven times with a 0.9% saline-0.5% Tween 20 solution. The Unifilter plate was dried, scintillation cocktail was added to each well and the counts representing binding were quantitated in a TopCount scintillation counter.
(§3) For compounds tested, an IC50 binding value was obtained from percent inhibition studies in which various test concentrations were used. The binding value was calculated by linear regression.
(§4) For compounds without an IC50 binding value, the percent inhibition (%) was obtained at a test concentration of ^a1.0 μM or ^b0.2 μM.

human CB2 receptor = target: T2, human CB2 receptor (Homo sapiens, UniProt P34972); experiment: Binding assay, cannabinoid CB2 receptor, [3H]-CP-55,940 displacement; settings: for inhibition at 1 µM / inhibition at 0.2 µM: read-out: Cannabinoid CB2 Receptor Binding, percent inhibition; for pIC50: membranes of SK-N-MC cells expressing human CB2, calculated by linear regression from percent inhibition at various concentrations
T2 construct: expressed in transfected cells; host or cells: SK-N-MC cells, stably transfected with pcDNA3 CB-2 (human); semi-purified membrane pellet
Description: as §1, §2, §3, §4

[1] = membranes of SK-N-MC cells expressing human CB1, calculated by linear regression from percent inhibition at various concentrations, read-out: Cannabinoid CB1 Receptor Binding, IC50 binding value
[2] = read-out: Cannabinoid CB1 Receptor Binding, percent inhibition

T1 sequence (P21554 whole entry): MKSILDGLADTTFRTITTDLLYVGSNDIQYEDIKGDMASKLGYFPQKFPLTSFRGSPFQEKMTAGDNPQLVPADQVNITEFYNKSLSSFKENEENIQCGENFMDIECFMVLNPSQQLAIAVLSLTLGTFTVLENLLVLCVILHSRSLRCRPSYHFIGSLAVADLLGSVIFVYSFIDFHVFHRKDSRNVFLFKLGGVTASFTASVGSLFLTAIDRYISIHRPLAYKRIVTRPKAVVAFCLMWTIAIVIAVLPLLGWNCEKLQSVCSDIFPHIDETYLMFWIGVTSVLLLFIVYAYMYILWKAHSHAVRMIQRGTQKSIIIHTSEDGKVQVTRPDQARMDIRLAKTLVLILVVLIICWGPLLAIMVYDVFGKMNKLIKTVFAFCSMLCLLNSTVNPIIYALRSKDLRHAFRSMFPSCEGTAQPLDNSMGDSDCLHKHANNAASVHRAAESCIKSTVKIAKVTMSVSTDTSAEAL
T2 sequence (P34972 whole entry): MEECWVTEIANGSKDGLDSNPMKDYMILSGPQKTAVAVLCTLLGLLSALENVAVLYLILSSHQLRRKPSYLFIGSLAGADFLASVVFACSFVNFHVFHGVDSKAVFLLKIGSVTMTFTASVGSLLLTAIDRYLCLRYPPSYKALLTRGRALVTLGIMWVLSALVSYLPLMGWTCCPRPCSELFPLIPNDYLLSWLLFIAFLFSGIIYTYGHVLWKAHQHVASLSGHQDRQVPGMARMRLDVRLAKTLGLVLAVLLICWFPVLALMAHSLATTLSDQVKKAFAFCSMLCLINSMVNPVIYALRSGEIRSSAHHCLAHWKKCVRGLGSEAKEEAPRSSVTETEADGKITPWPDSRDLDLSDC

pIC50 (human CB1 receptor; [1]) | Compound | pIC50 (human CB1 receptor) | inhibition at 1 µM (human CB2 receptor) [%] | also measured
– | CC(=Cc1ccc(Cl)cc1)c1c(C)c(C(=O)N[C@@H](C)C2CCCCC2)nn1-c1ccc(Cl)cc1Cl [Cpd 1, 5-[2-(4-chloro-phenyl)-1-methyl-vinyl]-1-(2,4-dichloro-phenyl)-4-methyl-1H-pyrazole-3-carboxylic acid [(1S)-1-cyclohexyl-ethyl]-amide] | 7.70 | 42 | –
– | CC(=Cc1ccc(Cl)cc1)c1c(C)c(C(=O)N[C@@H](C)c2ccccc2)nn1-c1ccc(Cl)cc1Cl [Cpd 2, 5-[2-(4-chloro-phenyl)-1-methyl-vinyl]-1-(2,4-dichloro-phenyl)-4-methyl-1H-pyrazole-3-carboxylic acid [(1S)-1-phenyl-ethyl]-amide] | 7.70 | 32 | –
– | CC(=Cc1ccc(Cl)cc1)c1c(C)c(C(=O)N[C@@H]2C(C)(C)[C@@H]3CC[C@]2(C)C3)nn1-c1ccc(Cl)cc1Cl [Cpd 3, 5-[2-(4-chloro-phenyl)-1-methyl-vinyl]-1-(2,4-dichloro-phenyl)-4-methyl-1H-pyrazole-3-carboxylic acid [(1R,2S,4R)-1,3,3-trimethyl-bicyclo[2.2.1]hept-2-yl]-amide] | 7.30 | 31 | –
– | CC(=Cc1ccc(Cl)cc1)c1c(C)c(C(=O)NN2CCCCC2)nn1-c1ccc(Cl)cc1Cl [Cpd 4, 5-[2-(4-chloro-phenyl)-1-methyl-vinyl]-1-(2,4-dichloro-phenyl)-4-methyl-1H-pyrazole-3-carboxylic acid piperidin-1-ylamide] | 7.05 | – | pIC50 (human CB2 receptor): 5.77
6.44 | CC(=Cc1ccc(Cl)cc1)c1c(C)c(C(=O)NN2CCOCC2)nn1-c1ccc(Cl)cc1Cl [Cpd 5, 5-[2-(4-chloro-phenyl)-1-methyl-vinyl]-1-(2,4-dichloro-phenyl)-4-methyl-1H-pyrazole-3-carboxylic acid morpholin-4-ylamide] | – | – | pIC50 (human CB2 receptor): 5.70
– | CC(=Cc1ccc(Cl)cc1)c1c(C)c(C(=O)N[C@H](C)C2CCCCC2)nn1-c1ccc(Cl)cc1Cl [Cpd 8, 5-[2-(4-chloro-phenyl)-1-methyl-vinyl]-1-(2,4-dichloro-phenyl)-4-methyl-1H-pyrazole-3-carboxylic acid [(1R)-1-cyclohexyl-ethyl]-amide] | 6.51 | 39 | –
– | CC(=Cc1ccc(Cl)cc1)c1c(C)c(C(=O)N[C@H](C)c2ccccc2)nn1-c1ccc(Cl)cc1Cl [Cpd 11, 5-[2-(4-chloro-phenyl)-1-methyl-vinyl]-1-(2,4-dichloro-phenyl)-4-methyl-1H-pyrazole-3-carboxylic acid [(1R)-1-phenyl-ethyl]-amide] | 6.47 | 51 | –
6.60 | CC(=Cc1cccc(Cl)c1)c1c(C)c(C(=O)NN2CCCCC2)nn1-c1ccc(Cl)cc1Cl [Cpd 12, 5-[2-(3-chloro-phenyl)-1-methyl-vinyl]-1-(2,4-dichloro-phenyl)-4-methyl-1H-pyrazole-3-carboxylic acid piperidin-1-ylamide] | – | – | –
– | CC(=Cc1cccc(Cl)c1)c1c(C)c(C(=O)NN2CCOCC2)nn1-c1ccc(Cl)cc1Cl [Cpd 13, 5-[2-(3-chloro-phenyl)-1-methyl-vinyl]-1-(2,4-dichloro-phenyl)-4-methyl-1H-pyrazole-3-carboxylic acid morpholin-4-ylamide] | – | – | inhibition at 1 µM (human CB1 receptor; [2]): 53%
– | CC(=Cc1cccc(Cl)c1)c1c(C)c(C(=O)N[C@@H](C)C2CCCCC2)nn1-c1ccc(Cl)cc1Cl [Cpd 16, 5-[2-(3-chloro-phenyl)-1-methyl-vinyl]-1-(2,4-dichloro-phenyl)-4-methyl-1H-pyrazole-3-carboxylic acid [(1S)-1-cyclohexyl-ethyl]-amide] | 6.48 | – | –
6.60 | CC(=Cc1cccc(Cl)c1)c1c(C)c(C(=O)N[C@@H](C)c2ccccc2)nn1-c1ccc(Cl)cc1Cl [Cpd 17, 5-[2-(3-chloro-phenyl)-1-methyl-vinyl]-1-(2,4-dichloro-phenyl)-4-methyl-1H-pyrazole-3-carboxylic acid [(1S)-1-phenyl-ethyl]-amide] | – | – | –
– | CC(=Cc1cccc(Cl)c1)c1c(C)c(C(=O)N[C@H](C)C2CCCCC2)nn1-c1ccc(Cl)cc1Cl [Cpd 18, 5-[2-(3-chloro-phenyl)-1-methyl-vinyl]-1-(2,4-dichloro-phenyl)-4-methyl-1H-pyrazole-3-carboxylic acid [(1R)-1-cyclohexyl-ethyl]-amide] | 7.05 | – | –
6.43 | CC(=Cc1cccc(Cl)c1)c1c(C)c(C(=O)N[C@H](C)c2ccccc2)nn1-c1ccc(Cl)cc1Cl [Cpd 19, 5-[2-(3-chloro-phenyl)-1-methyl-vinyl]-1-(2,4-dichloro-phenyl)-4-methyl-1H-pyrazole-3-carboxylic acid [(1R)-1-phenyl-ethyl]-amide] | – | – | –
6.89 | CC(=Cc1ccc(Cl)cc1)c1c(C)c(C(=O)N[C@@H](C)C2CCCCC2)nn1-c1ccc(F)cc1F [Cpd 21, 5-[2-(4-chloro-phenyl)-1-methyl-vinyl]-1-(2,4-difluoro-phenyl)-4-methyl-1H-pyrazole-3-carboxylic acid [(1S)-1-cyclohexyl-ethyl]-amide] | – | – | –
6.52 | CC(=Cc1ccc(Cl)cc1)c1c(C)c(C(=O)N[C@H](C)c2ccccc2)nn1-c1ccc(F)cc1F [Cpd 23, 5-[2-(4-chloro-phenyl)-1-methyl-vinyl]-1-(2,4-difluoro-phenyl)-4-methyl-1H-pyrazole-3-carboxylic acid [(1R)-1-phenyl-ethyl]-amide] | – | – | –
6.55 | CC(=Cc1ccc(Cl)cc1)c1c(C)c(C(=O)N[C@H](C)C2CCCCC2)nn1-c1ccc(F)cc1F [Cpd 24, 5-[2-(4-chloro-phenyl)-1-methyl-vinyl]-1-(2,4-difluoro-phenyl)-4-methyl-1H-pyrazole-3-carboxylic acid [(1R)-1-cyclohexyl-ethyl]-amide] | – | – | –
– | CNC(=O)c1nn(-c2ccc(Cl)cc2Cl)c(C(C)=Cc2ccc(Cl)cc2)c1C [Cpd 27, 5-[2-(4-chloro-phenyl)-1-methyl-vinyl]-1-(2,4-dichloro-phenyl)-4-methyl-1H-pyrazole-3-carboxylic acid methylamide] | – | – | inhibition at 0.2 µM (human CB1 receptor; [2]): 11%; inhibition at 0.2 µM (human CB2 receptor): 18%
– | CC[C@@H](C)NC(=O)c1nn(-c2ccc(Cl)cc2Cl)c(C(C)=Cc2ccc(Cl)cc2)c1C [Cpd 28, 5-[2-(4-chloro-phenyl)-1-methyl-vinyl]-1-(2,4-dichloro-phenyl)-4-methyl-1H-pyrazole-3-carboxylic acid [(R)-sec-butyl]-amide] | 7.15 | – | inhibition at 0.2 µM (human CB2 receptor): 21%
– | CC[C@H](C)NC(=O)c1nn(-c2ccc(Cl)cc2Cl)c(C(C)=Cc2ccc(Cl)cc2)c1C [Cpd 29, 5-[2-(4-chloro-phenyl)-1-methyl-vinyl]-1-(2,4-dichloro-phenyl)-4-methyl-1H-pyrazole-3-carboxylic acid [(S)-sec-butyl]-amide] | – | – | inhibition at 0.2 µM (human CB1 receptor; [2]): 52%; inhibition at 0.2 µM (human CB2 receptor): 9%

Compound | pIC50 (human CB1 receptor; [1]) | pIC50 (human CB1 receptor) | inhibition at 1 µM (human CB2 receptor) [%] | also measured
CC(=Cc1ccc(Cl)cc1)c1c(C)c(C(=O)NC2CCCCC2)nn1-c1ccc(Cl)cc1Cl [Cpd 6, 5-[2-(4-chloro-phenyl)-1-methyl-vinyl]-1-(2,4-dichloro-phenyl)-4-methyl-1H-pyrazole-3-carboxylic acid cyclohexylamide] | 6.89 | – | 40 | –
CC(=Cc1ccc(Cl)cc1)c1c(C)c(C(=O)NC2CCCCC2C)nn1-c1ccc(Cl)cc1Cl (stereo not shown) [Cpd 7, 5-[2-(4-chloro-phenyl)-1-methyl-vinyl]-1-(2,4-dichloro-phenyl)-4-methyl-1H-pyrazole-3-carboxylic acid (2-methyl-cyclohexyl)-amide] | 6.96 | – | 55 | –
CC(=Cc1ccc(Cl)cc1)c1c(C)c(C(=O)NCC2CCCCC2)nn1-c1ccc(Cl)cc1Cl [Cpd 9, 5-[2-(4-chloro-phenyl)-1-methyl-vinyl]-1-(2,4-dichloro-phenyl)-4-methyl-1H-pyrazole-3-carboxylic acid cyclohexylmethyl-amide] | 6.43 | – | 49 | –
CC(=Cc1ccc(Cl)cc1)c1c(C)c(C(=O)Nc2ccccc2)nn1-c1ccc(Cl)cc1Cl [Cpd 10, 5-[2-(4-chloro-phenyl)-1-methyl-vinyl]-1-(2,4-dichloro-phenyl)-4-methyl-1H-pyrazole-3-carboxylic acid phenylamide] | 6.22 | – | 46 | –
